Test results from publication PMC11440583 (2024).

Legend:
[1] = test system: Cy5-HIF-1α (DNA, G4) GCGCGGGGAGGGGAGAGGGGGCGGGAGCGCG; assay: microscale thermophoresis (ligand-induced fluorescence quenching); details: 100 mM KCl; 50 mM Tris pH 7.2, 0.05% Tween 20; 50 nM G4
[2] = test system: VEGF (DNA, G4) GGGAGGGTTGGGGTGGG; assay: CD (or UV) thermal melting; details: 5 mM KCl; 10 mM Tris pH 7.2; 8 μM compound, 2 μM DNA
[3] = test system: Bom17 (DNA, G4) GGTTAGGTTAGGTTAGG; assay: CD (or UV) thermal melting; details: 15 mM KCl; 10 mM Tris pH 7.2; 8 μM compound, 2 μM DNA
[4] = test system: c-MYC Pu22 (DNA, G4) TGAGGGTGGGTAGGGTGGGTAA; assay: CD (or UV) thermal melting; details: 5 mM KCl; 10 mM Tris pH 7.2; 8 μM compound, 2 μM DNA
[5] = test system: dsDNA (DNA, duplex) CAATCGGATCGAATTCGATCCGATTG; assay: CD (or UV) thermal melting; details: 5 mM KCl; 10 mM Tris pH 7.2; 8 μM compound, 2 μM DNA
[6] = test system: Tel22 (Tel22-Na+ antiparallel; Tel22-K+ hybrid) (DNA, G4) AGGGTTAGGGTTAGGGTTAGGG; assay: CD (or UV) thermal melting; details: 10 mM Tris pH 7.2, 8 μM compound, 2 μM DNA
[7] = test system: c-MYC Pu22 (DNA, G4) TGAGGGTGGGTAGGGTGGGTAA; assay: 1H NMR titration; details: K+; 0-1.5 equiv compound
[8] = test system: TBA (DNA, G4) GGTTGGTGTGGTTGG; assay: CD (or UV) thermal melting; details: 5 mM KCl; 10 mM Tris pH 7.2; 8 μM compound, 2 μM DNA
[9] = test system: Tel22 (Tel22-Na+ antiparallel; Tel22-K+ hybrid) (DNA, G4) AGGGTTAGGGTTAGGGTTAGGG; assay: 1H NMR titration; details: up to 2.0 equiv compound
[10] = test system: F-Tel22-Na+-T (DNA, G4) AGGGTTAGGGTTAGGGTTAGGG; assay: FRET melting with dsDNA competitor; details: 40 mM NaCl; 10 mM sodium cacodylate pH 7.2; 2 μM compound, 0.2 μM G4; 0-20 μM dsDNA
[11] = test system: c-MYC Pu24T (c-MYC Pu24-T; c-MYC Pu24) (DNA, G4) TGAGGGTGGTGAGGGTGGGGAAGG; assay: CD (or UV) thermal melting; details: 5 mM KCl; 10 mM Tris pH 7.2; 8 μM compound, 2 μM DNA

association constant [1]: 2.8 × 10^5 M^–1 | ΔTm [2]: 14.7 °C | ΔTm [3]: 8.8 °C | ΔTm [4]: 19.2 °C | ΔTm [5]: 1.0 °C | ΔTm ([6]; 5 mM KCl): 9.9 °C | ΔTm ([6]; 15 mM NaCl): 5.8 °C | binding [7]: yes | ΔTm [8]: 6.3 °C | binding [9]: yes | binding [10]: yes | ΔTm [11]: 4.2 °C
Structure (SMILES): NCCNCCNC(=O)c1cc(F)c(/N=N/c2c(F)cc(-c3ccncc3)cc2F)c(F)c1
